Consider seven molecules from ChEMBL document CHEMBL2073954, “Transport activity of human MRP3 expressed in Sf9 cells: comparative studies with rat MRP3” (Pharm Res, 2002).

In data set [1] the target is Multidrug resistance associated protein (Homo sapiens, UniProt Q96QA9). Briefly: (§1) TP_TRANSPORTER: inhibition of E217betaG uptake in membrane vesicle from MRP3-expressing Sf9 cells. Format: functional, cell membranes.
In data set [2] the target is T1, ATP-binding cassette sub-family C member 3 (Rattus norvegicus, UniProt O88563). The data set is described as §1. Format: functional, cell membranes.
Data set [3] has as its target T1, ATP-binding cassette sub-family C member 3. Briefly: (§2) TP_TRANSPORTER: uptake in membrane vesicles from Mrp3-expressing Sf9 cells. It is filed as functional, cell membranes, Membrane vesicle.
Data set [4] has the same target. Briefly: TP_TRANSPORTER: inhibition of E217betaG uptake in membrane vesicles from Mrp3-expressing Sf9 cells. Format: functional, cell membranes, Membrane vesicle.
Substrate in data set [5]: C[C@]12CC[C@@H]3c4ccc(O)cc4CC[C@H]3[C@@H]1CC[C@@H]2O[C@@H]1O[C@H](C(=O)O)[C@@H](O)[C@H](O)[C@H]1O
The following applies: Sf9; Membrane vesicle.

Substrate in data set [6]: C[C@]12CC[C@@H]3c4ccc(O)cc4CC[C@H]3[C@@H]1CC[C@@H]2O[C@@H]1O[C@H](C(=O)O)[C@@H](O)[C@H](O)[C@H]1O
The data set is described as §2. It is filed as functional, cell membranes, Membrane vesicle.

For `CNc1nc2c(Cc3cccnc3)c(C)c(O[C@@H]3O[C@H](C(=O)O)[C@@H](O)[C@H](O)[C@H]3O)c(C)c2s1` [E3040 GLUCURONIDE], the inhibition constant (Ki) (usually a dissociation constant, usually derived from enzyme kinetics or from competition with a known ligand) amounted to 5.6 µM in data set [1] and 2.6 µM in data set [2]. The Activity entry in data set [3] is “substrate [+]”.

`N[C@@H](CCC(=O)N[C@H](CSc1ccc([N+](=O)[O-])cc1[N+](=O)[O-])C(=O)NCC(=O)O)C(=O)O`: the inhibitory constant (Ki) came to 83.8 µM in data set [4] and 337 µM in data set [1]. Further, the Activity result in data set [3] was “substrate [+]”.

In the case of `CN(Cc1cnc2nc(N)nc(N)c2n1)c1ccc(C(=O)N[C@@H](CCC(=O)O)C(=O)O)cc1` [METHOTREXATE], the Ki is 90 µM in data set [4] and 1200 µM in data set [1].

As to `CCCCC/C=C\C\C=C/C=C/C=C/[C@@H](SC[C@@H](NC(=O)CC[C@H](N)C(=O)O)C(=O)NCC(=O)O)[C@@H](O)CCCC(=O)O` [LEUKOTRIEN C4], the Activity result in data set [3] was “substrate [+]”.

For the molecule `O=C(O)[C@H]1O[C@@H](OCc2cc(=O)oc3cc(O)ccc23)[C@H](O)[C@@H](O)[C@@H]1O`, the values for the Ki in data set [4] and in data set [1] were 77 µM and 105 µM, respectively.

B1: Multidrug resistance associated protein (Homo sapiens), Q96QA9 (protein)
chain: MDALCGSGELGSKFWDSNLSVHTENPDLTPCFQNSLLAWVPCIYLWVALPCYLLYLRHHCRGYIILSHLSKLKMVLGVLLWCVSWADLFYSFHGLVHGRAPAPVFFVTPLVVGVTMLLATLLIQYERLQGVQSSGVLIIFWFLCVVCAIVPFRSKILLAKAEGEISDPFRFTTFYIHFALVLSALILACFREKPPFFSAKNVDPNPYPETSAGFLSRLFFWWFTKMAIYGYRHPLEEKDLWSLKEEDRSQMVVQQLLEAWRKQEKQTARHKASAAPGKNASGEDEVLLGARPRPRKPSFLKALLATFGSSFLISACFKLIQDLLSFINPQLLSILIRFISNPMAPSWWGFLVAGLMFLCSMMQSLILQHYYHYIFVTGVKFRTGIMGVIYRKALVITNSVKRASTVGEIVNLMSVDAQRFMDLAPFLNLLWSAPLQIILAIYFLWQNLGPSVLAGVAFMVLLIPLNGAVAVKMRAFQVKQMKLKDSRIKLMSEILNGIKVLKLYAWEPSFLKQVEGIRQGELQLLRTAAYLHTTTTFTWMCSPFLVTLITLWVYVYVDPNNVLDAEKAFVSVSLFNILRLPLNMLPQLISNLTQASVSLKRIQQFLSQEELDPQSVERKTISPGYAITIHSGTFTWAQDLPPTLHSLDIQVPKGALVAVVGPVGCGKSSLVSALLGEMEKLEGKVHMKGSVAYVPQQAWIQNCTLQENVLFGKALNPKRYQQTLEACALLADLEMLPGGDQTEIGEKGINLSGGQRQRVSLARAVYSDADIFLLDDPLSAVDSHVAKHIFDHVIGPEGVLAGKTRVLVTHGISFLPQTDFIIVLADGQVSEMGPYPALLQRNGSFANFLCNYAPDEDQGHLEDSWTALEGAEDKEALLIEDTLSNHTDLTDNDPVTYVVQKQFMRQLSALSSDGEGQGRPVPRRHLGPSEKVQVTEAKADGALTQEEKAAIGTVELSVFWDYAKAVGLCTTLAICLLYVGQSAAAIGANVWLSAWTNDAMADSRQNNTSLRLGVYAALGILQGFLVMLAAMAMAAGGIQAARVLHQALLHNKIRSPQSFFDTTPSGRILNCFSKDIYVVDEVLAPVILMLLNSFFNAISTLVVIMASTPLFTVVILPLAVLYTLVQRFYAATSRQLKRLESVSRSPIYSHFSETVTGASVIRAYNRSRDFEIISDTKVDANQRSCYPYIISNRWLSIGVEFVGNCVVLFAALFAVIGRSSLNPGLVGLSVSYSLQVTFALNWMIRMMSDLESNIVAVERVKEYSKTETEAPWVVEGSRPPEGWPPRGEVEFRNYSVRYRPGLDLVLRDLSLHVHGGEKVGIVGRTGAGKSSMTLCLFRILEAAKGEIRIDGLNVADIGDPILFSGTLRMNLDPFGSYSEEDIWWALELSHLHTFVSSQPAGLDFQCSEGGENLSVGQRQLVCLARALLRKSRILVLDEATAAIDLETDNLIQATIRTQFDTCTVLTIAHRLNTIMDYTRVLVLDKGVVAEFDSPANLIAARGIFYGMARDAGLA
Take B1: the Michaelis constant (Km) – broadly, the concentration of substrate that gives half-maximal velocity – in data set [5] stood at 42.9 µM.

B2: ATP-binding cassette sub-family C member 3 (Rattus norvegicus) (protein)
chain: MDRLCGSGELGSKFWDSNLTVYTNTPDLTPCFQNSLLAWVPCIYLWAALPCYLFYLRHHRLGYIVLSCLSRLKTALGVLLWCISWVDLFYSFHGLVHGSSPAPVFFITPLLVGITMLLATLLIQYERLRGVRSSGVLIIFWLLCVICAIIPFRSKILLALAEGKILDPFRFTTFYIYFALVLCAFILSCFQEKPPLFSPENLDTNPCPEASAGFFSRLSFWWFTKLAILGYRRPLEDSDLWSLSEEDCSHKVVQRLLEAWQKQQTQASGPQTAALEPKIAGEDEVLLKARPKTKKPSFLRALVRTFTSSLLMGACFKLIQDLSPSSTHSCSASSSGLFRPHGPYWWGFLLAGLMFVSSTMQTLILHQHYHCIFVMALRIRTAIIGVIYRKALTITNSVKREYTVGEMVNLMSVDAQRFMDVSPFINLLWSAPLQVILAIYFLWQILGPSALAGVAVIVLLIPLNGAVSMKMKTYQVQQMKFKDSRIKLMSEILNGIKVLKLYAWEPTFLEQVEGIRQGELQLLRKGAYLQAISTFIWVCTPFMVTLITLGVYVCVDKNNVLDAEKAFVSLSLFNILKIPLNLLPQLISGMTQTSVSLKRIQDFLNQDELDPQCVERKTISPGRAITIHNGTFSWSKDLPPTLHSINIQIPKGALVAVVGPVGCGKSSLVSALLGEMEKLEGAVSVKGSVAYVPQQAWIQNCTLQENVLFGQPMNPKRYQQALETCALLADLDVLPGGDQTEIGEKGINLSGGQRQRVSLARAVYSDANIFLLDDPLSAVDSHVAKHIFDQVIGPEGVLAGKTRVLVTHGISFLPQTDFIIVLADGQITEMGHYSELLQHDGSFANFLRNYAPDENQEANEGVLQHANEEVLLLEDTLSTHTDLTDTEPAIYEVRKQFMREMSSLSSEGEGQNRPVLKRYTSSLEKEVPATQTKETGALIKEEIAETGNVKLSVYWDYAKSVGLCTTLFICLLYAGQNAVAIGANVWLSAWTNDVEEHGQQNNTSVRLGVYATLGILQGLLVMLSAFTMVVGAIQAARLLHTALLHNQIRAPQSFFDTTPSGRILNRFSKDIYVIHEVLAPTILMLFNSFYTSISTIVVIVASTPLFCVVVLPLAVFYGFVQRFYVATSRQLKRLESVSRSPIFSHFSETVTGTSVIRAYGRVQDFKVLSDAKVDSNQKTTYPYIASNRWLGVHVEFVGNCVVLFSALFAVIGRNSLNPGLVGLSVSYALQVTLSLNWMIRTLSDLESNIIAVERVKEYSKTETEAPWVLESNRAPEGWPRSGVVEFRNYSVRYRPGLELVLKNLTLHVQGGEKVGIVGRTGAGKSSMTLCLFRILEAAEGEIFIDGLNVAHIGLHDLRSQLTIIPQDPILFSGTLRMNLDPFGRYSDEDIWRTLELSHLSAFVSSQPTGLDFQCSEGGDNLSVGQRQLVCLARALLRKSRVLVLDEATAAIDLETDDLIQGTIRTQFEDCTVLTIAHRLNTIMDYNRVLVLDKGVVAEFDSPVNLIAAGGIFYGMAKDAGLA
As to B2, the Km in data set [6] amounted to 33.4 µM.
